Measured values taken from patent publication US11471390B2, “Pseudoceramide compound and use thereof” (DAEBONG LS, LTD, priority 2017, dated 2022).

System: Raw264.7 macrophage cells
Test: Cell viability of Raw264.7 macrophage cells by MTT assay (cytotoxicity)
Assay type: cell-based
Conditions: Raw264.7, MTT
Procedure: The cell viabilities of Raw264.7 macrophage cells were assessed by MTT assay to evaluate the cytotoxicities of the pseudoceramide compounds. When the cell viability was ≥80% by MTT assay, the pseudoceramide compound was judged to be not cytotoxic. The cell viabilities of the pseudoceramide compounds were […] at concentrations of 1-50 μg/mL, indicating no toxicity to Raw264.7 macrophage (Table 1). Another experiment for anti-inflammatory effects of the pseudoceramide compounds was conducted at concentrations of 1-50 μg/mL.

Compound	Cell viability (%) (10 μM)	Cell viability (%) (concentration 5.0 (μg/mL))	Cell viability (%) (concentration 10.0 (μg/mL))	Cell viability (%) (concentration 25.0 (μg/mL))	Cell viability (%) (concentration 50.0 (μg/mL))
Cc1ccnc(N)c1 [2-Amino-4-methylpyridine, reference compound]	103.13	–	–	–	–
CCCCCCCC/C=C\CCCCCCCC(=O)NC(CO)CO [Example 1, N-(1,3-dihydroxypropan-2-yl)oleamide]	–	100.99	102.08	102.14	102.22
CCCCC/C=C\C/C=C\CCCCCCCC(=O)NC(CO)CO [Example 2, (9Z,12Z)—N-(1,3-dihydroxypropan-2-yl)octadeca-9,12-dienamide]	–	100.35	100.24	100.09	93.80
CC/C=C\C/C=C\C/C=C\CCCCCCCC(=O)NC(CO)CO [Example 3, (9Z,12Z,15Z)—N-(1,3-dihydroxypropan-2-yl)octadeca-9,12,15-trienamide]	–	95.72	101.01	96.58	96.64
